Laboratory results taken from patent publication US9873693B2 (Sunesis Pharmaceuticals, Inc., priority 2006, dated 2018).

The compounds below were run against phosphorylated PDK1 (Homo sapiens (Human), UniProt O15530) (assay: PDK1 kinase assay (coupled PDK1/AKT/FAM-crosstide, IMAP)). Conditions: 0.5 nM phosphorylated PDK1, 24 μM ATP; read-out: Inhibition of phospo-PDK1 in vitro IC50.
phosphorylated PDK1, sequence (O15530 51-360): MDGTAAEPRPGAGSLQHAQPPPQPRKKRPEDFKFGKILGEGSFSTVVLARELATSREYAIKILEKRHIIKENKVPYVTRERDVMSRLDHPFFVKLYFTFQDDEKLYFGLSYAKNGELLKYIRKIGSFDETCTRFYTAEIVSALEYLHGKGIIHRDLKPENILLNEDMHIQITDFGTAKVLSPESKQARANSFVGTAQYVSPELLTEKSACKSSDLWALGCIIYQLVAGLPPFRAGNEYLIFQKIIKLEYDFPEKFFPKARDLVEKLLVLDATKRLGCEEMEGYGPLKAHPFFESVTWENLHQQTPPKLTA
Assay type: biochemical
In the case of `O=C(NCc1cc(-c2c[nH]c3ncccc23)ncn1)c1cccn(Cc2ccc(F)c(F)c2)c1=O` [Cpd 149], the IC50 is reported as < 500 nM.
In the case of `O=C(NCC12CC3CC(C1)CC(c1c[nH]c4ncccc14)(C3)C2)c1cccn(Cc2ccc(F)c(F)c2)c1=O` [Cpd 327], the IC50 is reported as 500 to 10000 nM.
`O=C(NCCCCc1c[nH]c2ncccc12)c1cc(Cl)cn(Cc2ccc(Cl)cc2)c1=O` [Cpd 268] was tested, and the IC50 was < 500 nM.
For `NS(=O)(=O)c1cccc(-c2cccc(CNC(=O)c3cccn(Cc4ccc(F)c(F)c4)c3=O)c2)c1` [Cpd 227], the IC50 was > 10000 nM.
In the case of `Cn1ccnc1/C=C1/C(=O)Nc2cc(/C=C/CNC(=O)c3cccn(Cc4cc(F)c(F)c(F)c4)c3=O)ccc21` [Cpd 210], the IC50 is reported as < 500 nM.
In the case of `O=C(N[C@@H](COc1cc2[nH]c(=O)[nH]c2cn1)c1ccccc1)c1cccn(Cc2cc(F)c(F)c(F)c2)c1=O` [Cpd 176], the IC50 is reported as < 500 nM.
In the case of `Nc1ncc(-c2cccc(CNC(=O)c3cccn(Cc4ccc(F)c(F)c4)c3=O)c2)cn1` [Cpd 215], the IC50 is reported as > 10000 nM.
For `O=C(N[C@@H](COc1ccc2[nH]c(=O)[nH]c2c1)C(=O)O)c1cccn(Cc2cc(F)c(F)c(F)c2)c1=O` [Cpd 154], the IC50 was < 500 nM.
With `O=C(Nc1cccc(C(=O)c2c[nH]c3ncccc23)c1)c1cccn(Cc2ccc(F)c(F)c2)c1=O` [Cpd 127] the IC50 was < 500 nM.
In the case of `O=C(c1cccn(Cc2ccc(F)c(F)c2)c1=O)N1CCN(C(=O)c2c[nH]c3ncccc23)CC1` [Cpd 233], the IC50 is reported as > 10000 nM.
With `O=C(NCc1cccc(-c2c[nH]c3ncc(-c4nnn[nH]4)cc23)c1)c1cccn(Cc2ccc(F)c(F)c2)c1=O` [Cpd 246] the IC50 was < 500 nM.
For `COc1ccnc(NCCCCCNC(=O)c2cccn(Cc3ccc(Cl)c(Cl)c3)c2=O)n1` [Cpd 251], the IC50 was 500 to 10000 nM.
In the case of `O=C(NCCCc1ccc2[nH]c(=O)[nH]c2c1)c1cccn(Cc2ccc(F)c(F)c2)c1=O` [Cpd 161], the IC50 is reported as < 500 nM.
`CN1CCC(=C2C(=O)Nc3cc(/C=C/CNC(=O)c4cccn(Cc5cc(F)c(F)c(F)c5)c4=O)ccc32)CC1` [Cpd 211] was tested, and the IC50 was < 500 nM.
With `O=C(O)COc1cc(CNC(=O)c2cccn(Cc3ccc(F)c(F)c3)c2=O)cc(-c2c[nH]c3ncccc23)c1` [Cpd 61] the IC50 was < 500 nM.
In the case of `O=C(NCCCCc1c[nH]c2ncccc12)c1cccn(Cc2ccc(Cl)c(Cl)c2)c1=O` [Cpd 269], the IC50 is reported as < 500 nM.
In the case of `NS(=O)(=O)c1ccccc1-c1cccc(CNC(=O)c2cccn(Cc3ccc(F)c(F)c3)c2=O)c1` [Cpd 226], the IC50 is reported as > 10000 nM.
With `O=C(NCC1CCC(c2c[nH]c3ncccc23)CC1)c1cccn(Cc2ccc(F)c(F)c2)c1=O` (stereo not drawn) [Cpd 223] the IC50 was > 10000 nM.
Work on `COc1ccnc(NCCC#CCCNC(=O)c2cccn(Cc3cccc(Cl)c3)c2=O)n1` [Cpd 250] yielded an IC50 of 500 to 10000 nM.
With `O=C(Nc1cccc(C(=O)n2ccc3ncccc32)c1)c1cccn(Cc2ccc(F)c(F)c2)c1=O` [Cpd 229] the IC50 was > 10000 nM.
`O=C(Nc1cccc(C(=O)c2c[nH]c3ccccc23)c1)c1cccn(Cc2ccc(F)c(F)c2)c1=O` [Cpd 221] was tested, and the IC50 was > 10000 nM.
For `NS(=O)(=O)c1ccc(-c2cccc(CNC(=O)c3cccn(Cc4ccc(F)c(F)c4)c3=O)c2)cc1` [Cpd 228], the IC50 was > 10000 nM.
For `O=C(N[C@H]1CC[C@H](c2c[nH]c3ncccc32)CC1)c1cccn(Cc2ccc(F)c(F)c2)c1=O` [Cpd 337], the IC50 was > 10000 nM.
In the case of `O=C(NCc1cccc(-c2c[nH]c3ncc(CO)cc23)c1)c1cccn(Cc2ccc(F)c(F)c2)c1=O` [Cpd 8], the IC50 is reported as < 500 nM.
With `O=C(NCCCCCCc1c[nH]c2ncccc12)c1cccn(Cc2ccc(F)c(F)c2)c1=O` [Cpd 338] the IC50 was < 500 nM.
`O=C1Cc2ccc(OCCNC(=O)c3cccn(Cc4cc(F)c(F)c(F)c4)c3=O)cc2N1` [Cpd 207] was tested, and the IC50 was < 500 nM.

The compounds below were run on phospho-akt (Thr308) (assay: phospho-akt (Thr308) MSD ELISA in PC-3 cells). Conditions: Homo sapiens, PC-3, 2 h, PC-3 cells, 2 hours, no serum; read-out: Inhibition of P308 Akt in cells using MSD EC50.
Assay type: cell-based
Protocol: PC-3 cells were harvested by trypsin and counted. Cells were plated in coated 96-well flat bottom plates (plate 15,000 cells/well in 100 ul growth media (10% FBS, 1× pen-strep) an place in an incubator overnight.
Subject inhibitors were stocked at 50 mM, then diluted to 30 mM (4.8 μl cpd plus […] DMSO) in 100% DMSO. Three-fold dilutions were performed from 30 mM stock. (4 μl into 8 ul 100% DMSO). Aliquots of 1.0 μl of inhibitor solution were transferred into SF Medium (using deep well block).
Control wells were prepared as follows. For DMSO high controls, 1.0 μl of 100% DMSO was added into 1.0 ml SF.
MSD plates were blocked for 1 hour by adding 150 μl of Blocking Solution (3% BSA) to each well. The MSD plates were washed 4× with TBST, and 50 μl lysates were transferred to MSD plate and place on plate shaker shake at 4 degrees O/N, light shaking (speed 3.5). The plate was washed 4× with TBST.
25 μl of Ab detection solution was added to each well. The plate was sealed and incubated 1 hr RT, light shaking (speed 3.5). The plate was washed 4 times with TBST. 150 μl of Read Buffer was added (5 mls 4×MSD Read Buffer+15 mls water). Finally the plate was read immediately on the MSD plate reader.
`O=C(NC/C=C/c1ccc2[nH]c(=O)[nH]c2c1)c1cccn(Cc2cc(F)c(F)c(F)c2)c1=O` [Cpd 170] was tested, and the EC50 was 1 to 5 µM.
`C=C[C@H](COc1ccc2[nH]c(=O)[nH]c2c1)NC(=O)c1cccn(Cc2cc(F)c(F)c(F)c2)c1=O` [Cpd 159] showed an EC50 of 1 to 5 µM.
`CS(=O)(=O)N1CCC(Oc2cc(CNC(=O)c3cccn(Cc4ccc(F)c(F)c4)c3=O)cc(-c3c[nH]c4ncccc34)c2)CC1` [Cpd 94] was tested, and the EC50 was < 1 µM.
For `O=C(NCc1cc(OC2CCCC2)cc(-c2c[nH]c3ncccc23)c1)c1cccn(Cc2ccc(F)c(F)c2)c1=O` [Cpd 85], the EC50 was 1 to 5 µM.
`O=C(NCc1coc(-c2c[nH]c3ncccc23)n1)c1cccn(Cc2ccc(F)c(F)c2)c1=O` [Cpd 131] gave an EC50 of 1 to 5 µM.
`CN(C)C(=O)COc1cc(CNC(=O)c2cccn(Cc3ccc(F)c(F)c3)c2=O)cc(-c2c[nH]c3ncccc23)c1` [Cpd 63] was tested, and the EC50 was < 1 µM.
`O=C(NCc1cc(OC2CCNCC2)cc(-c2c[nH]c3ncccc23)c1)c1cccn(Cc2ccc(F)c(F)c2)c1=O` [Cpd 67] was tested, and the EC50 was < 1 µM.
For `NC(=O)COc1cc(CNC(=O)c2cccn(Cc3ccc(F)c(F)c3)c2=O)cc(-c2c[nH]c3ncccc23)c1` [Cpd 62], the EC50 was < 1 µM.
With `O=C(NCc1cc(OCC(O)CO)cc(-c2c[nH]c3ncccc23)c1)c1cccn(Cc2ccc(F)c(F)c2)c1=O` (stereo not drawn) [Cpd 68] the EC50 was 1 to 5 µM.
For `O=C(NCc1cccc(-c2c[nH]c(C(=O)N3CCOCC3)c2)c1)c1cccn(Cc2ccc(F)c(F)c2)c1=O` [Cpd 76], the EC50 was 1 to 5 µM.
`O=C(NCc1cccc(-c2c[nH]c3ncccc23)c1)c1cccn(Cc2ccc(C(F)(F)F)cc2)c1=O` [Cpd 145] was tested, and the EC50 was > 5 µM.
`C[C@H](COc1ccc2[nH]c(=O)[nH]c2c1)NC(=O)c1cccn(Cc2cc(F)c(F)c(F)c2)c1=O` [Cpd 173] showed an EC50 of 1 to 5 µM.
Compound `O=C(NCc1cccc(-c2c[nH]c3nccc(F)c23)c1)c1cccn(Cc2ccc(F)c(F)c2)c1=O` [Cpd 74] has an EC50 of 1 to 5 µM.
With `O=C(NCc1cccc(-c2c[nH]c3ncc(C(=O)N4CCOCC4)cc23)c1)c1cccn(Cc2ccc(F)c(F)c2)c1=O` [Cpd 69] the EC50 was < 1 µM.
In the case of `O=C(NCc1noc(-c2c[nH]c3ncccc23)n1)c1cccn(Cc2cc(F)c(F)c(F)c2)c1=O` [Cpd 138], the EC50 is reported as 1 to 5 µM.
With `Nc1ncnc2ccc(-c3ccc(CNC(=O)c4cccn(Cc5ccc(F)c(F)c5)c4=O)s3)cc12` [Cpd 70] the EC50 was < 1 µM.
`CCn1nc(NC(=O)c2cccn(Cc3ccc(F)c(F)c3)c2=O)c2cc(-c3c[nH]c4ncccc34)ccc21` [Cpd 95] showed an EC50 of 1 to 5 µM.
For `O=C(N[C@@H](COc1ccc2[nH]c(=O)[nH]c2c1)c1ccccc1Cl)c1cccn(Cc2cc(F)c(F)c(F)c2)c1=O` [Cpd 151], the EC50 was < 1 µM.
`O=C(Nc1ccnc2ccc(-c3c[nH]c4ncccc34)cc12)c1cccn(Cc2ccc(F)c(F)c2)c1=O` [Cpd 66] was tested, and the EC50 was < 1 µM.
`O=C(NCc1ccc(O)c(-c2c[nH]c3ncccc23)c1)c1cccn(Cc2ccc(F)c(F)c2)c1=O` [Cpd 82] showed an EC50 of 1 to 5 µM.
With `O=C(O)c1cc(-c2c[nH]c3ncccc23)cc(CNC(=O)c2cccn(Cc3ccc(F)c(F)c3)c2=O)n1` [Cpd 172] the EC50 was > 5 µM.
For `CC(C)Oc1cc(CNC(=O)c2cccn(Cc3cc(F)c(F)c(F)c3)c2=O)cc(-c2c[nH]c3ncccc23)c1` [Cpd 65], the EC50 was < 1 µM.
In the case of `Nc1ncnc2ccc(-c3cccc(CNC(=O)c4cccn(Cc5ccc(F)c(F)c5)c4=O)c3)cc12` [Cpd 64], the EC50 is reported as > 5 µM.
`O=C(N[C@@H](COc1ccc2[nH]c(=O)[nH]c2c1)C1CC1)c1cccn(Cc2cc(F)c(F)c(F)c2)c1=O` [Cpd 168] was tested, and the EC50 was 1 to 5 µM.
In the case of `Cn1nc(NC(=O)c2cccn(Cc3ccc(F)c(F)c3)c2=O)c2cc(-c3c[nH]c4ncccc34)ccc21` [Cpd 87], the EC50 is reported as < 1 µM.
`CC(c1ccc(C(F)(F)F)cc1)n1cccc(C(=O)NCc2noc(-c3c[nH]c4ncccc34)n2)c1=O` (stereo not drawn) [Cpd 140] showed an EC50 of 1 to 5 µM.
For `O=C(NCc1cc(OC2CCCCC2)cc(-c2c[nH]c3ncccc23)c1)c1cccn(Cc2ccc(F)c(F)c2)c1=O` [Cpd 84], the EC50 was > 5 µM.
`O=C(NCCOc1ccc2[nH]c(=O)[nH]c2c1F)c1cccn(Cc2ccc(F)c(F)c2)c1=O` [Cpd 169] showed an EC50 of 1 to 5 µM.
With `O=C(NCc1ccc(OCCN2CCOCC2)c(-c2c[nH]c3ncccc23)c1)c1cccn(Cc2ccc(F)c(F)c2)c1=O` the EC50 was 1 to 5 µM.
With `CC(C)(C)OC(=O)N1CCC(Oc2cc(CNC(=O)c3cccn(Cc4ccc(F)c(F)c4)c3=O)cc(-c3c[nH]c4ncccc34)c2)CC1` [Cpd 88] the EC50 was > 5 µM.

Same assay, conditions: Homo sapiens, PC-3, 2 h, PC-3 cells, 2 hours, no serum; read-out: Reduction of Cellular Levels of Akt p308 By MSD ELISA (EC50 μM)
`O=C(NCc1coc(-c2c[nH]c3ncccc23)n1)c1cccn(Cc2ccc(F)c(F)c2)c1=O` [Cpd 131] was tested, and the EC50 was 1 to 5 µM.
In the case of `O=C(NCc1cccc(-c2c[nH]c3ncccc23)c1)c1cccn(Cc2ccc(C(F)(F)F)cc2)c1=O` [Cpd 145], the EC50 is reported as 1 to 5 µM.
`O=C(Nc1n[nH]c2ccc(-c3c[nH]c4ncccc34)cc12)c1cccn(Cc2ccc(F)c(F)c2)c1=O` [Cpd 42] showed an EC50 of 1 to 5 µM.
Compound `O=C(NCc1noc(-c2c[nH]c3ncccc23)n1)c1cccn(Cc2cc(F)c(F)c(F)c2)c1=O` [Cpd 138] has an EC50 of 1 to 5 µM.
`CC(c1ccc(C(F)(F)F)cc1)n1cccc(C(=O)NCc2noc(-c3c[nH]c4ncccc34)n2)c1=O` (stereo not drawn) [Cpd 140] showed an EC50 of 1 to 5 µM.
For `O=C(NCc1cccc(-c2c[nH]c3ncc(-c4nnn[nH]4)cc23)c1)c1cccn(Cc2ccc(F)c(F)c2)c1=O` [Cpd 43], the EC50 was > 5 µM.

Same assay, conditions: Homo sapiens, PC-3, 2 h, read-out: Inhibition of P308 Akt in cells using MSD EC50
`CN1CCC(Oc2cc(CNC(=O)c3cccn(Cc4ccc(F)c(F)c4)c3=O)cc(-c3c[nH]c4ncccc34)c2)CC1` [Cpd 86] gave an EC50 of 1 to 5 µM.
`O=C(NC(COc1ccc2[nH]c(=O)[nH]c2c1)c1cccnc1)c1cccn(Cc2cc(F)c(F)c(F)c2)c1=O` (stereo not drawn) [Cpd 163] showed an EC50 of 1 to 5 µM.

Same assay, conditions: Homo sapiens; PC-3 cells, at 1 μM; read-out: Percent Inhibition of phospho-Akt (308) By MSD ELISA
With `O=C(NCc1noc(-c2c[nH]c3ncccc23)n1)c1cccn(Cc2ccc(F)c(F)c2)c1=O` [Cpd 129] the inhibition at 1 µM was < 25%.

Same assay, conditions: Homo sapiens; PC-3 cells, at 10 μM; read-out: Percent Inhibition of phospho-Akt (308) By MSD ELISA
In the case of `O=C(NCc1noc(-c2c[nH]c3ncccc23)n1)c1cccn(Cc2ccc(F)c(F)c2)c1=O` [Cpd 129], the inhibition at 10 µM is reported as < 25%.
